In US20130184222A1, “[…] ACTIVE COMPOSITIONS AND THEIR METHODS OF USE” (AGIOS PHARMACEUTICALS, INC, priority 2010, published 2013):
Like-named read-outs stand apart in the source and are kept apart here.

How the values were obtained:
IDH1 R132H = IDH1 R132H (Homo sapiens, UniProt O75874, R132H); assay: In vitro assay for IDH1 R132H inhibitors (NADPH/aKG, resazurin detection); assay type: biochemical; settings: 0.2 μg/ml IDH1 R132H, 50 minutes at room temperature
Description: Assays were conducted in a volume of 76 μl assay buffer (150 mM NaCl, 10 mM MgCl2, 20 mM Tris pH 7.5, 0.03% bovine serum albumin) as follows in a standard 384-well plate: To 25 ul of substrate mix (8 uM NADPH, 2 mM aKG), 1 μl of test compound was added in DMSO. The plate was centrifuged briefly, and then 25 μl of enzyme mix was added (0.2 μg/ml IDH1 R132H) followed by a brief centrifugation and shake at 100 RPM. The reaction was incubated for 50 minutes at room temperature, then 25 μl of detection mix (30 μM resazurin, […]) was added and the mixture further incubated for 5 minutes at room temperature. The conversion of resazurin to resorufin was detected by fluorescent spectroscopy at Ex544 Em590 c/o 590.
The compounds of Formula I set forth in Table 1 and the compounds set forth in Table 2 were tested in this assay and the results set forth below in Table 4A and 4B.

U87MG cells = assay: Cellular assay: inhibition of 2-HG production in U87MG cells (LC-MS, 48 hours); assay type: cell-based; settings: Homo sapiens, U-87 MG, 2-HG in media by LC-MS
Description: Cells (HT1080 or U87MG) were grown in T125 flasks in DMEM containing 10% FBS, 1× penicillin/streptomycin and 500 ug/mL G418 (present in U87MG cells only). They were harvested by trypsin and seeded into 96 well white bottom plates at a density of 5000 cell/well in 100 ul/well in DMEM with 10% FBS. No cells were placed in columns 1 and 12. Cells were incubated overnight at 37° C. in 5% CO2. The next day test compounds were made up at 2× the final concentration and 100 ul were added to each cell well. The final concentration of DMSO was 0.2% and the DMSO control wells were plated in row G. The plates were then placed in the incubator for 48 hours. At 48 hours, 100 ul of media was removed from each well and analyzed by LC-MS for 2-HG concentrations. The cell plate was placed back in the incubator for another 24 hours. At 72 hours post compound addition, 10 mL/plate of Promega Cell Titer Glo reagent was thawed and mixed. The cell plate was removed from the incubator and allowed to equilibrate to room temperature. Then 100 ul of Promega Cell Titer Glo reagent was added to each well of media. The cell plate was then placed on an orbital shaker for 10 minutes and then allowed to sit at room temperature for 20 minutes. The plate was then read for luminescence with an integration time of 500 ms.

[1] = Table 4B, read-out: IC50, IDH1 R132H Inhibition
[2] = Table 4A, read-out: IC50 (uM), IDH1 R132H Inhibition

IDH1 R132H, sequence (O75874 whole entry R132H): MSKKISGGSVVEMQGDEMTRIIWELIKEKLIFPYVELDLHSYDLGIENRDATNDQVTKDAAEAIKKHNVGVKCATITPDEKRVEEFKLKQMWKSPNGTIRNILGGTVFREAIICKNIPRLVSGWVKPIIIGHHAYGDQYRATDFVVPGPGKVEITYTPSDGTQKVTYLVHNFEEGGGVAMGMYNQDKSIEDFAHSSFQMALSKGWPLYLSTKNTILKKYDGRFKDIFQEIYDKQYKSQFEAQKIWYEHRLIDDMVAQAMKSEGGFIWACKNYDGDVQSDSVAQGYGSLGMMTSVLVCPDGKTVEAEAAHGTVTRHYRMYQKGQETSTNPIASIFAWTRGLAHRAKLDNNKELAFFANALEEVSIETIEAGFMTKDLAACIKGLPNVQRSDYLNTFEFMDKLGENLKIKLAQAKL

Structure (SMILES) | IC50 (IDH1 R132H; [1]) [µM] | IC50 (IDH1 R132H; [2]) [µM] | IC50 (U87MG cells) [nM]
Cc1ccccc1C(C(=O)NC1CCCCC1)N(C(=O)CNC1CC1)c1cccc(F)c1 (centres unmarked) [Compound 119] | 0.1 to 1 | – | –
CCc1ccccc1C(C(=O)NC1CCCCC1)N(C(=O)Cc1cccs1)c1cccc(F)c1 (centres unmarked) [Compound 65] | – | 0.1 to 1 | –
Cc1ccccc1C(C(=O)NC1CCOCC1)N(C(=O)CN(C)c1ccccc1)c1cccc(F)c1 (centres unmarked) [Compound 183] | 0.1 to 1 | – | 1000 to 5000
Cc1ccsc1C(C(=O)NC1CCCCC1)N(C(=O)Cc1cccs1)c1cccc(F)c1 (centres unmarked) [Compound 51] | – | 0.1 to 1 | –
O=C(NC1CCCC1)C(c1ccccc1)N(C(=O)Cc1cccs1)c1ccccc1F (centres unmarked) [Compound 48] | – | 0.1 to 1 | –
O=C(NC1CCCCC1)C(c1ccc(Cl)cc1)N(C(=O)Cc1cccs1)c1cccc(F)c1 (centres unmarked) [Compound 79] | – | 0.1 to 1 | –
Cc1ccccc1C(C(=O)NC1CCCCC1)N(C(=O)CNCc1ccccc1)c1cccc(F)c1 (centres unmarked) [Compound 152] | 0.1 to 1 | – | –
Cc1ccccc1N(C(=O)Cc1cccs1)C(C(=O)NC(C)(C)C)c1cccc(F)c1 (centres unmarked) [Compound 14] | – | 10 to 100 | –
Cc1ccccc1C(C(=O)NC1CCCCC1)N(C(=O)Cc1cccs1)c1ccc2c(c1)OCCO2 (centres unmarked) [Compound 149] | 0.1 to 1 | – | –
Cc1ccccc1C(C(=O)NC1CCCCC1)N(C(=O)CN1CCCCC1)c1cccc(F)c1 (centres unmarked) [Compound 141] | 0.1 to 1 | – | –
COc1cccc(C(C(=O)NC2CCCCC2)N(C(=O)Cc2cccs2)c2cccc(F)c2)c1 (centres unmarked) [Compound 49] | – | 0.1 to 1 | –
Cc1ccccc1C(C(=O)NC1CCCCC1)N(C(=O)Cc1cccs1)C1CCCCC1 (centres unmarked) [Compound 113] | 0.1 to 1 | – | –
O=C(NC1CCCCC1)C(c1cc(Cl)ccc1Cl)N(C(=O)Cc1cccs1)c1cccc(F)c1 (centres unmarked) [Compound 103] | 0.1 to 1 | – | –
O=C(NC1CCCC1)C(c1ccccc1Cl)N(C(=O)Cc1cccs1)c1ccccc1F (centres unmarked) [Compound 2] | – | 0.1 to 1 | –
COC(=O)N1CCOC[C@H]1C(=O)N(c1cccc(F)c1)[C@H](C(=O)NC1CCCCC1)c1ccccc1C [Compound 385] | ≤ 0.1 | – | –
Cc1ccccc1C(C(=O)NC1CCCCC1)N(C(=O)CNC1CCOCC1)c1cccc(F)c1 (centres unmarked) [Compound 181] | 0.1 to 1 | – | 1000 to 5000
COc1ccccc1C(C(=O)NC1CCCC1)N(C(=O)Cc1cccs1)c1cccc(F)c1 (centres unmarked) [Compound 26] | – | 0.1 to 1 | –
O=C(NC1CCCCC1)C(c1ccc(O)cc1)N(C(=O)Cc1cccs1)c1cccc(F)c1 (centres unmarked) [Compound 92] | – | 0.1 to 1 | –
Cc1ccccc1C(C(=O)NC1CCCCC1)N(C(=O)Cc1ccc(OC(=O)N2CCN(C)CC2)cc1)c1cccc(F)c1 (centres unmarked) [Compound 277] | 1 to 10 | – | –
O=C(NC1CCCC1)C(c1ccccc1)N(C(=O)Cc1cccs1)c1cccc(F)c1 (centres unmarked) [Compound 45] | – | 0.1 to 1 | –
O=C(Cc1cccs1)N(c1cccc(F)c1)C1(C(=O)NC2CCCC2)CCC1 [Compound 22] | – | ≥ 100 | –
Cc1ccccc1C(C(=O)NC1CCCCC1)N(C(=O)CN1CCc2ccccc2C1)c1cccc(F)c1 (centres unmarked) [Compound 143] | 0.1 to 1 | – | –
CC(C(=O)NCc1ccccc1)(c1cccc(F)c1)N(C(=O)Cc1cccs1)c1ccccc1 (centres unmarked) [Compound 12] | – | 10 to 100 | –
Cc1ccccc1[C@@H](C(=O)NC1CCCCC1)N(C(=O)[C@@H]1CCCCN1S(C)(=O)=O)c1cccc(F)c1 [Compound 349] | 0.1 to 1 | – | –
Cc1ccccc1C(C(=O)NC1CCCCC1)N(C(=O)Cc1cccs1)c1ccc(F)cc1 (centres unmarked) [Compound 145] | 0.1 to 1 | – | –
O=C(NC1CCCC1)C(c1ccccc1F)N(C(=O)Cc1cccs1)c1ccc2c(c1)OCO2 (centres unmarked) [Compound 6] | – | 0.1 to 1 | –
O=C(NC1CCCCC1)C(c1ccccc1F)N(C(=O)CNCc1ccncc1)c1cccc(F)c1 (centres unmarked) [Compound 323] | 0.1 to 1 | – | –
Cc1ccccc1C(C(=O)NC1CCCC1)N(C(=O)c1ccccn1)c1cccc(F)c1 (centres unmarked) [Compound 72] | – | 1 to 10 | –
Cc1ccccc1C(C(=O)NC1CCCCCC1)N(C(=O)Cc1cccs1)c1cccc(F)c1 (centres unmarked) [Compound 80] | – | ≤ 0.1 | –
Cc1ccc(N(C(=O)Cc2cccs2)C(C(=O)NC2CCCCC2)c2ccccc2C)cc1Cl (centres unmarked) [Compound 117] | 0.1 to 1 | – | –
